Test results taken from article PMC10046369, “Low-Affinity/High-Selectivity Dopamine Transport Inhibition Sufficient to Rescue Cognitive Functions in the Aging Rat” (Biomolecules, 2023).

Legend:
Assay in all cases: biochemical
Design in all cases: KINOMEscan competition binding panel, per cent of control
Conditions in all cases: read-out: %Ctrl @ 2800nM
MEK1 = molecular target: T1, MEK1 (Homo sapiens, UniProt Q02750)
T1 construct: gene MAP2K1
Protocol: (§1) A panel of binding assays covering 450 human kinases and disease-relevant mutations was performed by DiscoverX (KINOMEscan®, Freemont, CA, USA) according to the standard and validated protocol defined by the contractor. […] Kinase binding assays This study was outsourced to DiscoverX (KINOMEscan®, Freemont, CA, USA) and is compliant with the corresponding project BUY004-01-p-00001. […] Results are reported as percent control (% Ctrl), where lower numbers indicate stronger hits in the matrix on the following page(s). %Ctrl calculation: ((test compound signal-positive control signal) / (negative control signal – positive control signal)) x 100.

[1] = molecular target: T2, ABL1(F317I)-nonphosphorylated (Homo sapiens, UniProt P00519, F317I)
T2 construct: nonphosphorylated
Protocol: as §1

CAMK2G = CAMK2G (Homo sapiens, UniProt Q13555)
Protocol: as §1

NIM1 = molecular target: T3, NIM1 (Homo sapiens, UniProt Q8IY84)
T3 construct: gene NIM1K
Protocol: as §1

IRAK4 = IRAK4 (Homo sapiens, UniProt Q9NWZ3)
Protocol: as §1

MLK3 = molecular target: T4, MLK3 (Homo sapiens, UniProt Q16584)
T4 construct: gene MAP3K11
Protocol: as §1

[2] = molecular target: T5, ABL1(T315I)-nonphosphorylated (Homo sapiens, UniProt P00519, T315I)
T5 construct: nonphosphorylated
Protocol: as §1

PKAC-beta = molecular target: T6, PKAC-beta (Homo sapiens, UniProt P22694)
T6 construct: gene PRKACB
Protocol: as §1

FLT3(K663Q) = FLT3(K663Q) (Homo sapiens, UniProt P36888, K663Q)
Protocol: as §1

TEC = TEC (Homo sapiens, UniProt P42680)
Protocol: as §1

PAK3 = PAK3 (Homo sapiens, UniProt O75914)
Protocol: as §1

ABL1-nonphosphorylated = molecular target: T7, ABL1-nonphosphorylated (Homo sapiens, UniProt P00519)
T7 construct: nonphosphorylated
Protocol: as §1

ABL2 = ABL2 (Homo sapiens, UniProt P42684)
Protocol: as §1

RET(V804L) = RET(V804L) (Homo sapiens, UniProt P07949, V804L)
Protocol: as §1

ACVR1B = ACVR1B (Homo sapiens, UniProt P36896)
Protocol: as §1

PIM3 = PIM3 (Homo sapiens, UniProt Q86V86)
Protocol: as §1

RIOK2 = RIOK2 (Homo sapiens, UniProt Q9BVS4)
Protocol: as §1

AKT3 = AKT3 (Homo sapiens, UniProt Q9Y243)
Protocol: as §1

[3] = molecular target: T8, JAK1(JH1domain-catalytic) (Homo sapiens, UniProt P23458)
T8 construct: JH1domain-catalytic
Protocol: as §1

MELK = MELK (Homo sapiens, UniProt Q14680)
Protocol: as §1

PFTK1 = molecular target: T9, PFTK1 (Homo sapiens, UniProt O94921)
T9 construct: gene CDK14
Protocol: as §1

HIPK2 = HIPK2 (Homo sapiens, UniProt Q9H2X6)
Protocol: as §1

ARK5 = molecular target: T10, ARK5 (Homo sapiens, UniProt O60285)
T10 construct: gene NUAK1
Protocol: as §1

GSK3A = GSK3A (Homo sapiens, UniProt P49840)
Protocol: as §1

BRK = molecular target: T11, BRK (Homo sapiens, UniProt Q13882)
T11 construct: gene PTK6
Protocol: as §1

MAP4K4 = MAP4K4 (Homo sapiens, UniProt O95819)
Protocol: as §1

T9 sequence (O94921 whole entry): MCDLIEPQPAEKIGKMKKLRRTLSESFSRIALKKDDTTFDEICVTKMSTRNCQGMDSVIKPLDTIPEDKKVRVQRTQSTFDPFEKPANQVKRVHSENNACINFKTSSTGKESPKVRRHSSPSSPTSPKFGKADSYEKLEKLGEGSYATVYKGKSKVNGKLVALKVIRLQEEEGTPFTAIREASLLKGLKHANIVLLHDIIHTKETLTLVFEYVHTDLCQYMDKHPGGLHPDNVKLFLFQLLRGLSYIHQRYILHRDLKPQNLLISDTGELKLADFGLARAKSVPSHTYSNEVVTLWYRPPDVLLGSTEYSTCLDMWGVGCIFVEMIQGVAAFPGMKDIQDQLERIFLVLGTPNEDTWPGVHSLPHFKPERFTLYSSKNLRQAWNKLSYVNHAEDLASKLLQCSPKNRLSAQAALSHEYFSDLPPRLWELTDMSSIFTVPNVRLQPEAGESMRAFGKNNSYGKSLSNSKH
TEC, sequence (P42680 whole entry): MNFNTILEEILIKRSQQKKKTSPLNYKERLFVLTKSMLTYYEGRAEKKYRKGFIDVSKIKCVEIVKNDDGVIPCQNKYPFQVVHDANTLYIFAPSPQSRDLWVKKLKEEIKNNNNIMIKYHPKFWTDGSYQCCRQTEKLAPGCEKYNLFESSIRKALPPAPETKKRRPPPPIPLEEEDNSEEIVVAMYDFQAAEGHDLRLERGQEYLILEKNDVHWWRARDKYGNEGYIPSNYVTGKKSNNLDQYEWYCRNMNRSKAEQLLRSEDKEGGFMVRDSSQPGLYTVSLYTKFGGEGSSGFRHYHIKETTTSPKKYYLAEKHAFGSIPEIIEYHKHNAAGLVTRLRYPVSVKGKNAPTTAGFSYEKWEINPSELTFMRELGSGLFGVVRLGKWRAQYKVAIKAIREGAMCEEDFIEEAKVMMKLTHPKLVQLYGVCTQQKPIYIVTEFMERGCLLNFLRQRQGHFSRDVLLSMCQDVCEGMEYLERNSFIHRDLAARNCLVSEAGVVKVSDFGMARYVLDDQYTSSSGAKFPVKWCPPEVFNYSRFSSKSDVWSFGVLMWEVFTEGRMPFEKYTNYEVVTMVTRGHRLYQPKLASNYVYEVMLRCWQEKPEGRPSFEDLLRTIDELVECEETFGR
T10 sequence (O60285 whole entry): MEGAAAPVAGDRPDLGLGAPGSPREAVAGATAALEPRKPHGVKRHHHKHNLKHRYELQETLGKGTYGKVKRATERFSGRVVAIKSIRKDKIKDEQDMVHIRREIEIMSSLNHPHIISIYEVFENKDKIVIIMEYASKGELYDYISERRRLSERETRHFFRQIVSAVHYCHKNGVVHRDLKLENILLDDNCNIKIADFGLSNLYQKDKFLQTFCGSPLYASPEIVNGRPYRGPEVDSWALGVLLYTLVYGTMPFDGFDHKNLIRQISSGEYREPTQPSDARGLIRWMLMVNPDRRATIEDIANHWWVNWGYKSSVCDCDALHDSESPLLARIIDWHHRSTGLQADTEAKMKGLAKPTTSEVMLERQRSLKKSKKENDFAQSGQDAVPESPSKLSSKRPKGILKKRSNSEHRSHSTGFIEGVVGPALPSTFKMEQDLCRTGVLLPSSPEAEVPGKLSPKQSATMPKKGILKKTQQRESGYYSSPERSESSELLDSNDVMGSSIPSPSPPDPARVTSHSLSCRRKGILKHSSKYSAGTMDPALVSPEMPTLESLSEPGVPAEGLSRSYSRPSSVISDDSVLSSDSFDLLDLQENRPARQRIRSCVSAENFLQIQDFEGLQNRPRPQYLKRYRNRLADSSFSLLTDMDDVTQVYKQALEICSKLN
AKT3, sequence (Q9Y243 whole entry): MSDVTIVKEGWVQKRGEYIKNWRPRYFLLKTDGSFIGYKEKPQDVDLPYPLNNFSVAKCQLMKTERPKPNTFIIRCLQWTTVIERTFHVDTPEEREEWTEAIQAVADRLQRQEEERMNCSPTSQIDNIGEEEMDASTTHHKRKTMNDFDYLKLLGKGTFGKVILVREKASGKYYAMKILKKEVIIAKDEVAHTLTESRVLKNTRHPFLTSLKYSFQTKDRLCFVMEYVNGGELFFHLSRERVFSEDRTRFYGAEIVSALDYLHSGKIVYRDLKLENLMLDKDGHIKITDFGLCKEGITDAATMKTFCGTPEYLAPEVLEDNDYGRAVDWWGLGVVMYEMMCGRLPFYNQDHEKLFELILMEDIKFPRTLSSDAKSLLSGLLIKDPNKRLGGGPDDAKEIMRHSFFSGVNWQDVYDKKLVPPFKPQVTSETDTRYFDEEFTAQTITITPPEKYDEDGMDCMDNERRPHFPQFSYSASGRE
RET(V804L), sequence (P07949 whole entry V804L): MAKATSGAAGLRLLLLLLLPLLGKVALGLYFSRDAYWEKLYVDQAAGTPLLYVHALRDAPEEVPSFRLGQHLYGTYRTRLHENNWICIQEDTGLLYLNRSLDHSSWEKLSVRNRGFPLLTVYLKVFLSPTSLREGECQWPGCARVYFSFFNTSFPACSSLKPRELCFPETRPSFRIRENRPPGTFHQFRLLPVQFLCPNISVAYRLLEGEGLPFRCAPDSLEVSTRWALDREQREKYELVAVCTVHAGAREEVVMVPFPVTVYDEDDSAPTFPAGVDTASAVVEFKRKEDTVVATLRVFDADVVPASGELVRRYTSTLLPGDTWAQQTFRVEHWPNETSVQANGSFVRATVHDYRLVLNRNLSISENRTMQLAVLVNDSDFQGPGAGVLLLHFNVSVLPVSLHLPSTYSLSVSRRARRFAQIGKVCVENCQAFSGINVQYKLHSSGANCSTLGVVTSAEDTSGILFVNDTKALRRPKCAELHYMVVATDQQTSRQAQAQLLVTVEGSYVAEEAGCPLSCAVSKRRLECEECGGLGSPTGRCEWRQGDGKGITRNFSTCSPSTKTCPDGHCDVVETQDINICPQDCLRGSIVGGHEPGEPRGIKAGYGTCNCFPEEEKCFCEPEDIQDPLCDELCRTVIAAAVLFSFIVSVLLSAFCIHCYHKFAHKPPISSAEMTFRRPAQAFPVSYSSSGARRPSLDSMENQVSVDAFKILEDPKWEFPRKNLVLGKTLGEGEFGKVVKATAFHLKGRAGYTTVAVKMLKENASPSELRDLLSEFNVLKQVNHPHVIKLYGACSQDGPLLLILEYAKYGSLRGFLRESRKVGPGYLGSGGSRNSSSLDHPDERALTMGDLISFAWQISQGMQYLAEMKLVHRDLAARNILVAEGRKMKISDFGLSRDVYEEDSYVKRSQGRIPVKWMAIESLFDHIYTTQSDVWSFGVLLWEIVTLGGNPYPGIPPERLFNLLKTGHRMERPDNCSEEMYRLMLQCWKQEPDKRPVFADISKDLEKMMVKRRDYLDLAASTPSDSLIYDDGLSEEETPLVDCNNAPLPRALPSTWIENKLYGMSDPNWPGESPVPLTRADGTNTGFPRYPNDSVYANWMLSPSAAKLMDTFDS
MELK, sequence (Q14680 whole entry): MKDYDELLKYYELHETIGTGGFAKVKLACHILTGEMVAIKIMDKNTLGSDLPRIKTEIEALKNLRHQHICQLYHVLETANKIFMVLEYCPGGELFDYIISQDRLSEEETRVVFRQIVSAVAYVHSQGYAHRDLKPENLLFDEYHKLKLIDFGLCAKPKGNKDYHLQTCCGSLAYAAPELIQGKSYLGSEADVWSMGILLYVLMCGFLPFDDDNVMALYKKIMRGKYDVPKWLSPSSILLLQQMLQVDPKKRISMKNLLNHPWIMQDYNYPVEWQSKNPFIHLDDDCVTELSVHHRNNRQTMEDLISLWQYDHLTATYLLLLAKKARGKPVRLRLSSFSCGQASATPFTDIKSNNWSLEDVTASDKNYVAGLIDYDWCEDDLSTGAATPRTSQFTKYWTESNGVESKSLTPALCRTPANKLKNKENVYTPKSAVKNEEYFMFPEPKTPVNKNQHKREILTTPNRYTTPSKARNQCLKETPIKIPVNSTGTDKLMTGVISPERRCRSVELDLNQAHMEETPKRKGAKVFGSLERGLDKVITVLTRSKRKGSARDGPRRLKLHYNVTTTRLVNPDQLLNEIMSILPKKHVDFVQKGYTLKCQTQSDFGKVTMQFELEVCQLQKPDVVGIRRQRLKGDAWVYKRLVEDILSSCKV
GSK3A, sequence (P49840 whole entry): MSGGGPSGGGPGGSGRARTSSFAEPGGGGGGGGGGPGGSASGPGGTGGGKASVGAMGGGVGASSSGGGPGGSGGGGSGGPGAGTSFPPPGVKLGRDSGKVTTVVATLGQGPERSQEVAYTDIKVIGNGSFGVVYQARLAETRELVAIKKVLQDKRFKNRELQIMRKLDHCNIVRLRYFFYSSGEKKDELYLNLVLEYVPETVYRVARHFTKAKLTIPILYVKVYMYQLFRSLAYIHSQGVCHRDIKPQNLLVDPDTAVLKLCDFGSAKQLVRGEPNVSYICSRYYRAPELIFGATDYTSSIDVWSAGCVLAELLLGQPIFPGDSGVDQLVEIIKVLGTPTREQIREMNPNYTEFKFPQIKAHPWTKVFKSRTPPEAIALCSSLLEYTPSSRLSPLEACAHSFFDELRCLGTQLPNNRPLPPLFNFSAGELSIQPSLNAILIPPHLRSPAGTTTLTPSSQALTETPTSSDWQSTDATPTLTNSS
RIOK2, sequence (Q9BVS4 whole entry): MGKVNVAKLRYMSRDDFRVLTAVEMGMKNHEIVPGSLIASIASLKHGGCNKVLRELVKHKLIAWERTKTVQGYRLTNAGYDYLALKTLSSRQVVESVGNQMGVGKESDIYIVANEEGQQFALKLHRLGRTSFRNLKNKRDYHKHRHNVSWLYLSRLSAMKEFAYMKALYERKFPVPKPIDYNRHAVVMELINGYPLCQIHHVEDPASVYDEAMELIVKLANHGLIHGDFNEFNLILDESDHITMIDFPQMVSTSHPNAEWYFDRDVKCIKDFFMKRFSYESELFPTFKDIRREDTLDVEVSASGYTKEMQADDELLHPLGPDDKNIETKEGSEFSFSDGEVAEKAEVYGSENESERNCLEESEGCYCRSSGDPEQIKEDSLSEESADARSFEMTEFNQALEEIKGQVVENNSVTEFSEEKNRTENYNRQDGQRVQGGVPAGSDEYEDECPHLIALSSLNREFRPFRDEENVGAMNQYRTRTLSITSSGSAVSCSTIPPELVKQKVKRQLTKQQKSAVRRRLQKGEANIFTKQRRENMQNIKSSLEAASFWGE

[O-][S@@+](Cc1cncs1)C(c1ccccc1)c1ccccc1 [S-CE-123, (S)-5-((Benzhydrylsulfinyl)Methyl)Thiazole]
remaining binding at 2.8 µM (MEK1): 94% | remaining binding at 2.8 µM [1]: 100% | remaining binding at 2.8 µM (CAMK2G): 95% | remaining binding at 2.8 µM (NIM1): 97% | remaining binding at 2.8 µM (IRAK4): 94% | remaining binding at 2.8 µM (MLK3): 100% | remaining binding at 2.8 µM [2]: 100% | remaining binding at 2.8 µM (PKAC-beta): 100% | remaining binding at 2.8 µM (FLT3(K663Q)): 96% | remaining binding at 2.8 µM (TEC): 100% | remaining binding at 2.8 µM (PAK3): 70% | remaining binding at 2.8 µM (ABL1-nonphosphorylated): 93% | remaining binding at 2.8 µM (ABL2): 99% | remaining binding at 2.8 µM (RET(V804L)): 91% | remaining binding at 2.8 µM (ACVR1B): 100% | remaining binding at 2.8 µM (PIM3): 100% | remaining binding at 2.8 µM (RIOK2): 99% | remaining binding at 2.8 µM (AKT3): 99% | remaining binding at 2.8 µM [3]: 93% | remaining binding at 2.8 µM (MELK): 67% | remaining binding at 2.8 µM (PFTK1): 92% | remaining binding at 2.8 µM (HIPK2): 100% | remaining binding at 2.8 µM (ARK5): 100% | remaining binding at 2.8 µM (GSK3A): 99% | remaining binding at 2.8 µM (BRK): 96% | remaining binding at 2.8 µM (MAP4K4): 100%
